Assay results from US8846699B2, “Quinazoline derivatives as a multiplex inhibitor and method for the preparation thereof” (Hanmi Pharm. Co., Ltd., priority 2005, dated 2014).

How the values were obtained:
[1] = tested on: Human Umbilical Vein Endothelial Cell (HUVEC); test: Inhibitory effect on growth of human umbilical vein endothelial cell (HUVEC), MTS; format: cell-based; settings: 10 ng/ml VEGF, absorbance 490 nm
VEGFR2 (KDR) = VEGFR2 (KDR) (Homo sapiens (Human), UniProt P35968); test: VEGFR2 (KDR) enzyme assay, fluorescence polarization; format: biochemical; settings: 5 μM ATP, poly(Glu, Tyr) substrate
How it was run: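 Buffer: 20 mM HEPES pH 7.4 with 5 mM MgCl2, 2 mM MnCl2 and 50 μM Na3VO4. Compound (0.0001–10 μM) was premixed 10 min with VEGFR2 (200 ng/10 μl), then poly(Glu,Tyr) substrate (10 ng/ml) and 5 μM ATP were added for 1 h at room temperature. EDTA-quenched samples were read by FP after 30 min with antibody and tracer.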

EGFR1 (HER-1) = EGFR1 (HER-1) (Homo sapiens (Human), UniProt P00533); test: EGFR1 (HER-1) enzyme assay, fluorescence polarization; format: biochemical; settings: 100 μM ATP, poly(Glu, Tyr) substrate
[2] = tested on: skin cancer cell line, A431; test: Inhibitory effect on growth of cancer cell line A431, SRB; format: cell-based; settings: overexpressed EGFR1 (HER-1)
How it was run: (§1)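 Growth inhibition was measured by sulforhodamine-B staining (absorbance 570 nm) of TCA-fixed cells after 72 h compound exposure at 37 °C, 5% CO2. Test concentrations ran from 10 μM in 10-fold steps to 10^−4, with DMSO below 1%, in 10% FBS DMEM.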

[3] = tested on: breast cancer cell line, SK-Br3; test: Inhibitory effect on growth of cancer cell line SK-Br3, SRB; format: cell-based; settings: overexpressed EGFR2 (HER-2)
How it was run: as §1

[4] = tested on: colon and rectal cancer cell line, SW-620; test: Inhibitory effect on growth of cancer cell line SW-620, SRB; format: cell-based; settings: not having overexpressed EGFR and EGFR2
How it was run: as §1

VEGFR2 (KDR), sequence (P35968 20-1356): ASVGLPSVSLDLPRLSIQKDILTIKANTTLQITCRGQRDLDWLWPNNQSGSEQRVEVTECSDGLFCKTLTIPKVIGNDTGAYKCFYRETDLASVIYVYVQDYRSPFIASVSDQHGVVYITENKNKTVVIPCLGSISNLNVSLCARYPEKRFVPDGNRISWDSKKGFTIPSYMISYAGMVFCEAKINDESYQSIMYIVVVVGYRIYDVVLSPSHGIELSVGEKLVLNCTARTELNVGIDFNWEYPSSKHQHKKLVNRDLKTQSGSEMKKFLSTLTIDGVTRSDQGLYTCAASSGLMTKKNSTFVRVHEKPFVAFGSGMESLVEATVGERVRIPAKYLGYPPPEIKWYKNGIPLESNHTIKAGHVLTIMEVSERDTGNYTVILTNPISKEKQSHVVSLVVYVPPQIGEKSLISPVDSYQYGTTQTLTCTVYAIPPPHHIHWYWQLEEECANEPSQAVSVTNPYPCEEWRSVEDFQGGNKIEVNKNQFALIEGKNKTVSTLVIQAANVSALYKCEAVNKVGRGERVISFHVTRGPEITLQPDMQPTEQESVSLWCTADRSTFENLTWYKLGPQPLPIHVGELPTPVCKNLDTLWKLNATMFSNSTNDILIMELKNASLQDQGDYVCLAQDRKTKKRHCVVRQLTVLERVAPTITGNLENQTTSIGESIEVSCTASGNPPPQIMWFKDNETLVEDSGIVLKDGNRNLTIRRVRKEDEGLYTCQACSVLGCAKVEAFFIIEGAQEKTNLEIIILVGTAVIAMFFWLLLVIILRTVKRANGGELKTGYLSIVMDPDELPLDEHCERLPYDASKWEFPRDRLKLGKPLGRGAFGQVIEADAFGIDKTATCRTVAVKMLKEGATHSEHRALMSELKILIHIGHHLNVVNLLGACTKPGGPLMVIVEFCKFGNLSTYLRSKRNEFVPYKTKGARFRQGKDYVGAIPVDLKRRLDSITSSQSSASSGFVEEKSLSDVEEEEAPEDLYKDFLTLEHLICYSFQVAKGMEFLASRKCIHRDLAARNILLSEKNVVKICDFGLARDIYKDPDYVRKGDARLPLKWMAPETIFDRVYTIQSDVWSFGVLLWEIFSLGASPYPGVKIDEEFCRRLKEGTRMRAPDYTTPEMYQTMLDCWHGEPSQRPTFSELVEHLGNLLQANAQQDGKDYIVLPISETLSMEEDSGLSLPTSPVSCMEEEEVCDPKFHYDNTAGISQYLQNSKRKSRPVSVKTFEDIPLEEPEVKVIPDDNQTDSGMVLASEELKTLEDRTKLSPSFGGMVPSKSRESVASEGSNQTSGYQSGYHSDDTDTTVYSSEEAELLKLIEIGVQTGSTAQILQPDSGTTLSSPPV

Compound	IC50 ([1]; Homo sapiens, 96 h) [µM]	IC50 (VEGFR2 (KDR)) [µM]	IC50 (EGFR1 (HER-1)) [µM]	IC50 ([2]; Homo sapiens, A-431, 72 h) [µM]	IC50 ([3]; Homo sapiens, SK-BR-3, 72 h) [µM]	IC50 ([4]; Homo sapiens, 72 h) [µM]	IC50 ([1]; 96 hours) [µM]	IC50 ([2]; 72 hours) [µM]	IC50 ([3]; 72 hours) [µM]	IC50 ([4]; 72 hours) [µM]
C=CC(=O)Nc1cc2c(Nc3ccc(Br)c(Cl)c3F)ncnc2cc1OCCNC(=O)CO [Example 149, N-{4-(4-bromo-3-chloro-2-fluoro-phenylamino)-7-[2-(2-hydroxy-acetylamino)-ethoxy]-quinazolin-6-yl}-acrylamide]	0.204	0.147	0.016	0.015	0.041	9.56				
C=CC(=O)Nc1cc2c(Nc3ccc(F)c(F)c3F)ncnc2cc1OCCNC(C)=O [Example 118, N-[7-(2-acetylamino-ethoxy)-4-(2,3,4-trifluoro-phenylamino)-quinazolin-6-yl]-acrylamide]	0.681	0.489	0.014	0.015	0.079	0.725				
C=CC(=O)Nc1cc2c(Nc3ccc(Br)cc3F)ncnc2cc1OCC1CCN(C(=O)C(F)(F)F)CC1 [Example 2, N-{4-(4-bromo-2-fluoro-phenylamino)-7-[1-(2,2,2-trifluoro-acetyl)-piperidin-4-ylmethoxy]-quinazolin-6-yl}-acrylamide]	0.096	0.25	0.047	0.082	0.24	4.58				
C=CC(=O)Nc1cc2c(Nc3c(F)cc(Br)cc3F)ncnc2cc1OCCNC(=O)CN(C)C [Example 123, N-[4-(4-bromo-2,6-difluorophenylamino)-7-{2-[2-(dimethylamino)-acetamido]-ethoxy}-quinazolin-6-yl]-acrylamide]	0.328	0.268	0.175	0.181	0.126	10				
C=CCCOc1cc2ncnc(Nc3ccc(Br)cc3F)c2cc1NC(=O)C=C [Example 31, N-[4-(4-bromo-2-fluoro-phenylamino)-7-but-3-enyloxy-quinazolin-6-yl]-acrylamide]	0.686	0.523	0.09	0.093	0.055	2.53				
C=CC(=O)Nc1cc2c(Nc3cc(Cl)c(Br)cc3F)ncnc2cc1OCCNC(=O)CC [Example 134, N-[4-(4-bromo-5-chloro-2-fluoro-phenylamino)-7-(2-propionylamino-ethoxy)-quinazolin-6-yl]-acrylamide]	1.06	0.172	0.013	0.018	0.062	9.59				
C=CC(=O)Nc1cc2c(Nc3ccc(Br)c(Cl)c3F)ncnc2cc1OCC(C)NC(=O)CN(C)C (stereo not drawn) [Example 157]		0.687	0.088				0.752	0.095	0.165	8.36
N-{2-[6-acryloylamino-4-(4-bromo-2,3-difluoro-phenylamino)-quinazolin-7-oxy]-ethyl}-4-dimethylamino-butylamide [Example 127]		0.958	0.568				0.676	0.698	1.02	6.51
C=CC(=O)Nc1cc2c(Nc3ccc(Br)c(F)c3F)ncnc2cc1OCCNC(=O)CCN(CC)CC [Example 125, N-{4-(4-bromo-2,3-difluoro-phenylamino)-7-[2-(3-diethylamino-propionylamino)-ethoxy]-quinazolin-6-yl}-acrylamide]	0.657	0.218	0.019	0.022	0.242	2.98				
C=CC(=O)Nc1cc2c(Nc3ccc(Br)cc3F)ncnc2cc1OCCCNC(=O)CN(C)C [Example 12, N-{4-(4-bromo-2-fluoro-phenylamino)-7-[3-(2-dimethylamino-acetylamino)-propoxy]-quinazolin-6-yl}-acrylamide]	0.156	0.347	0.002	0.017	0.157	2.5				
C=CC(=O)Nc1cc2c(Nc3ccc(Br)cc3F)ncnc2cc1OCCCNC(=O)CS(C)(=O)=O [Example 15, N-{4-(4-bromo-2-fluoro-phenylamino)-7-[3-(2-methanesulfonyl-acetylamino)-propoxy]-quinazolin-6-yl}-acrylamide]	0.15	0.33	0.068	0.118	0.734	9.57				
C=CC(=O)Nc1cc2c(Nc3ccc(Br)cc3F)ncnc2cc1OCCNC(=O)C(=O)OCC [Example 71, {2-[6-acryloylamino-4-(4-bromo-2-fluoro-phenylamino)-quinazolin-7-yloxy]-ethyl}-oxalamic acid ethylester]	0.286	0.251	0.098	0.1	4.4	2.98				
C=CC(=O)Nc1cc2c(Nc3ccc(Br)cc3F)ncnc2cc1OCCCNC [Example 17, N-[4-(4-bromo-2-fluoro-phenylamino)-7-(3-methylamino-propoxy)-quinazolin-6-yl]-acrylamide]	0.087	0.154	0.003	0.011	0.064	2.02				
C=CC(=O)Nc1cc2c(Nc3ccc(Br)cc3F)ncnc2cc1OCCNC(=S)NC [Example 35, N-{4-(4-bromo-2-fluoro-phenylamino)-7-[2-(3-methyl-thioureido)-ethoxy]-quinazolin-6-yl}-acrylamide]	0.951	0.457	0.098	0.09	0.225	9.56				
C=CC(=O)Nc1cc2c(Nc3ccc(Br)cc3F)ncnc2cc1OCCNC(=O)NC(C)C [Example 37, N-{4-(4-bromo-2-fluoro-phenylamino)-7-[2-(3-isopropyl-ureido)-ethoxy]-quinazolin-6-yl}-acrylamide]	0.682	0.895	0.036	0.031	0.065	4.54				
C=CC(=O)Nc1cc2c(Nc3ccc(Br)cc3F)ncnc2cc1OCC(C)NC(=O)CCN(CC)CC (stereo not drawn) [Example 155, N-{4-(4-bromo-2-fluoro-phenylamino)-7-[2-(3-diethylamino-propionylamino)-propoxy]-quinazolin-6-yl}-acrylamide]	0.314	0.249	0.024	0.035	0.11	9.55				
C=CC(=O)Nc1cc2c(Nc3ccc(Br)cc3F)ncnc2cc1OCCNC(=O)C1CCCN1 (stereo not drawn) [Example 97, pyrrolidine-2-carboxylic acid {2-[6-acryloylamino-4-(4-bromo-2-fluoro-phenylamino)-quinazolin-7-yloxy]-ethyl}-amide]	0.867	0.658	1.95	2.38	10	2.74				
C=CC(=O)Nc1cc2c(Nc3ccc(Br)c(Cl)c3F)ncnc2cc1OCCNC(=O)CCO [Example 145, N-{4-(4-bromo-3-chloro-2-fluoro-phenylamino)-7-[2-(3-hydroxy-propionylamino)-ethoxy]-quinazolin-6-yl}-acrylamide]	0.116	0.088	0.041	0.045	0.058	2.63				
C=CC(=O)Nc1cc2c(Nc3ccc(Br)c(Cl)c3F)ncnc2cc1OCCNC(=O)CC [Example 142, N-[4-(4-bromo-3-chloro-2-fluoro-phenylamino)-7-(2-propionylamino-ethoxy)-quinazolin-6-yl]-acrylamide]	0.132	0.106	0.014	0.015	0.045	10				
C=CC(=O)Nc1cc2c(Nc3ccc(Br)c(Cl)c3F)ncnc2cc1OCCNC(=O)OC [Example 165, {2-[6-acryloylamino-4-(4-bromo-3-chloro-2-fluoro-phenylamino)-quinazolin-7-yloxy]-ethyl}-carbamic acid methylester]	0.189	0.079	0.098	0.137	0.198	9.77				
C=CC(=O)Nc1cc2c(Nc3ccc(Br)cc3Cl)ncnc2cc1OCCNC(C)=O [Example 115, N-[7-(2-acetylamino-ethoxy)-4-(4-bromo-2-chloro-phenylamino)-quinazolin-6-yl]-acrylamide]	0.934	0.854	0.042	0.045	0.897	10				
C=CC(=O)Nc1cc2c(Nc3cc(OC)c(Cl)cc3F)ncnc2cc1OCCNC(C)=O [Example 129, N-[7-(2-acetylamino-ethoxy)-4-(4-chloro-2-fluoro-5-methoxy-phenylamino)-quinazolin-6-yl]-acrylamide]	0.35	0.357	0.08	0.082	0.106	0.721				
